Consider one compound from patent US9808434B2, “Compound for treating cancer and diabetes” (CITY OF HOPE, priority 2011, dated 2017).

In assay [1] the test system is 3T3-L1 cells. Description: Adipocyte differentiation, Oil Red O staining. It counts as cell-based, mouse. Conditions: preadipocytes 7 days in differentiating media (DM) + compound. On the procedure:
Two-day post-confluent 3T3-L1 preadipocyte cells were allowed to differentiate for 7 days in the presence of nothing, DM only, DM+ a test compound (COH-SR1, COH-SR2, COH-SR3, COH-SR4, COH-SR7, LR23 or LR59), or DM+ a positive control (TSA, C75, or Apicidin).
3T3-L1 preadipocytes cells were treated with differentiating media (DM) with COH-SR4 (1 μM, 3 μM, or 5 μM) or without for 7 days. […] As used in FIG. 9C, U=undifferentiated, D=differentiated with cocktail media.

The subject of assay [2] is AMPK. The experiment in a line: AMPK activation in 3T3-L1 cells, Western blot. It counts as cell-based, mouse. Conditions: 1 hour. On the procedure:
Activation of AMPK was associated with the phosphorylation of the α-subunit on Thr-172 of as assessed using phospho-specific antibodies (FIGS. 10A-B). AMPK activation also leads to the increased phosphorylation of the target protein acetyl-CoA carboxylase (ACC) (FIG. 10B).
Cells of each cell lines (Hela, HL-60, and 3T3-L1) were treated for 1 hour with a test compound (COH-SR4, COH-SR9, COH-SR16, or COH-SR18) at a concentration of 1 μM, 3 μM, or 5 μM, or AICAR (5-aminoimidazole-4-carboxamideriboside, an AMPK agonist used as positive control) at a concentration of 500 μM, or none of the above (the untreated cells as negative control). Total cell lysates from the untreated cells and the cells treated with a test compound or AICAR were analyzed by Western blot assay using specific antibodies against phospho-AMPK, phospho-ACC, total AMPK and total ACC.

Assay [3] has as its system B16-F0. Description: MTT assay, B16-F0. It counts as cell-based. The note with it: Mus musculus. As to the method: (§1) Cell density measurements were performed using a hemocytometer to count reproductive cells resistant to staining with trypan blue. Approximately 20,000 cells were plated into each well of 96-well flat-bottomed micro-titer plates. After 12 h or 24 h incubation at 37° C., medium containing either COH-SR4 (ranging 0-200 μM) or elesclomol (ranging 0-20 μM) were added to the cells. After 24 h, 48 h or 96 h incubation, 20 μL of 5 mg/mL MTT were introduced to each well and incubated for 2 h. The plates were centrifuged and medium was decanted. Cells were subsequently dissolved in 100 μl DMSO with gentle shaking for 2 h at room temperature, followed by measurement of OD570 (91).
Cells of highly aggressive mouse melanoma cell line B16-F0 or human melanoma cell line Hs600T were incubated with various doses of COH-SR4 (1, 2.5, 5, 10, 25, 50, or 100 μM). The cell viabilities after treatment of 48 hours and 96 hours were measured and summarized in FIGS. 54A and 55A, respectively. […] Data were presented as mean±Standard Deviation from two separate determinations with eight replicate each (n=16).

Assay [4] has as its system A2058. Description: MTT assay, A2058. The class given is cell-based. Conditions: Homo sapiens, A2058, 96 h. On the procedure:
as §1

Assay [5] deals with A2058. Description: Colony formation assay, A2058. The class given is cell-based, human. On the procedure:
Cell survival was evaluated using a standard colony-forming assay. […] After 7 or 10 days, adherent colonies were fixed, stained with 0.5% methylene blue for 30 min and colonies were counted using the Innotech Alpha Imager HP (91).

Assay [6] concerns A2058 cells. Description: Mitochondrial membrane depolarization, TMRE. The class given is cell-based, human. Conditions: 5 μM. As to the method:
Cells (4×10^5/well in 6-well plates) cultured overnight were pre-incubated with the fluorescent indicator of MMP tetramethylrhodamine ester (TMRE, 200 nM) or DMSO control for 30 min at 37° C. in CO2 incubator. Cells were washed with pre-warmed normal DMEM media, and test compounds were added with fresh media for the indicated times. Cells were then trypsinized, collected, centrifuged for 5 min at 800×g, and washed once in pre-warmed PBS-0.2% BSA. Cells were then resuspended in the same buffer prior to flow cytometric analysis. A total of 30,000 cells were counted per sample and data was analyzed by Cyan ADP flow cytometer with excitation/emission of 488 nm/572 nm (Beckman Coulter, Inc., Brea, Calif.). For measurements of membrane potential in isolated mouse liver mitochondria, the organelles were pre-incubated with 200 nM TMRE in MASSRO buffer (MAS buffer supplemented with 10 mM succinate, 1 μM rotenone, and 1 μM oligomycin) for 20 min at 25° C. The mitochondria were centrifuged for 5 min at 3000×g and resuspended in MASSRO buffer. Mitochondria were then added to MASSRO buffer containing the indicated concentrations of COH-SR4, FCCP or DMSO vehicle control and incubated at room temperature for 15 min. […] TMRE fluorescence was measured with a microplate reader (Tecan Infinite M200 Pro, Tecan Group Ltd., Switzerland) using an excitation emission of 545ex/580em. […]

Assay [7] relates to hepatic genes. Description: Liver gene expression of HFD obese and db/db mice. Conditions: RT-PCR and RNA-seq. It counts as in vivo, mouse. The text has this: Total RNA was isolated from livers of lean, vehicle or COH-SR4-treated HFD mice using standard protocols and subjected to quantitative RT-PCR using primers for key genes associated with lipid and fatty acid synthesis (Acaca, Pparg, Acly, Scd1, Srebf1, Hmgcr, Cpt1, Fasn) and gluconeogenesis (G6pc, Pck1). Livers of db/+ and db/db mice treated with vehicle or COH-SR4 were used for RNA-seq analysis. RNA isolation, purification, sequencing, library preparation and read alignments were done at the City of Hope Functional Genomics Core facility. Differential gene expression was identified from standard Partek workflow (Partek Genomics Suite v6.6, Partek, Inc) using ANOVA, with step-up FDR multiple testing correction p-value of <0.05 and 1.5× fold change. […] Databases utilized included GOTERM_BP_FAT (biological process) and Kyoto Encyclopedia of Genes and Genomes (KEGG_PATHWAY).
Total RNA was isolated from liver of control animals and HFD obese or db/db mice treated with vehicle or COH-SR4 (as described in Example 35). Relative mRNA expression (mean±SEM) of lipogenic and gluconeogenic genes were determined using real time RT-PCR and quantified using the comparative Ct method (FIG. 86A, ^#P<0.05, ^##P<0.01 vs. HFD). […] Key hepatic genes associated with lipid/fatty acid synthesis and glucose and amino acid metabolism regulated by COH-SR4 in db/db mice are shown in FIG. 86D.

“Also recorded” adds a separate entry of the source.

Consider `O=C(Nc1cc(Cl)cc(Cl)c1)Nc1cc(Cl)cc(Cl)c1` [COH-SR4, 1,3-bis(3,5-dichlorophenyl) urea], for which the “differentiation and accumulation of lipid droplets (Oil Red O staining)” value in assay [1] is “dose-dependently inhibited differentiation and accumulation of lipid droplets; also recorded: prevented accumulation of fat droplets”. The AMPK activation entry in assay [2] was “activated AMPK”. Also, the IC50 is approximately 14 µM in assay [3] (B16F0, 48 h, 48 hours); approximately 5 µM in assay [3] (B16F0, 96 h, 96 hours); 11 ± 2 µM in assay [4]. For the same compound, the colony formation in assay [5] (5 μM) is on record as 43±7%; in assay [5] (10 μM, vs untreated control) it was 37±4%. In assay [6], the “mitochondrial membrane depolarization (TMRE fluorescence)” value is on record as “induced mitochondrial membrane depolarization in a time-dependent manner”. For the same compound, in assay [7], the hepatic pathways affected result was “downregulated hepatic lipogenesis and glucose metabolic pathways, while upregulating amino acid metabolism”.
